According to patent US20210346398A1, “COMBINATIONS WITH A C-19 STEROID FOR TREATING CANCERS” (priority 2018, published 2021):
“And” between values parts separate entries of the source, which are not always exact repeats. Equal entries are not always repeated.

Assays:
LNCaP cells = experiment: WST-1 proliferation assay of LNCaP cells; details: for absorbance at 450 nm as % of solvent control, single compound: EN 10 μM, ABI 10 μM, 4-OHT concentration not stated; for Combi: absorbance at 450 nm as % of solvent control, agent in combination with 4-OHT: EN 10 μM or ABI 10 μM plus 4-OHT
MDAMB453 = experiment: WST-1 proliferation assay of MDAMB453 cells; type: cell-based, human; details: 4 days; for Single drug: absorbance at 450 nm as % of solvent control: OHT 10 or 20 μM, EN 5 μM, ETM 25 nM, FUL 1.0 μM, EXE 0.1 μM, Pab 50 nM, Doc 1.0 nM; for Combi: absorbance at 450 nm as % of solvent control, agent in combination with 4-OHT: agent at the single drug concentration plus 4-OHT; for SE1 (synergistic effect, A anti-cancer compound alone / A combination): agent plus 4-OHT versus agent alone
VCaP cells = experiment: WST-1 proliferation assay of VCaP cells; details: for absorbance at 450 nm as % of solvent control, single compound: EN 10 μM, ABI 10 μM, 4-OHT concentration not stated; for Combi: absorbance at 450 nm as % of solvent control, agent in combination with 4-OHT: EN 10 μM or ABI 10 μM plus 4-OHT
T-47D cells = experiment: WST-1 proliferation assay of T-47D cells; type: cell-based, human; details: for Single drug: absorbance at 450 nm as % of solvent control / Combi: absorbance at 450 nm as % of solvent control, agent in combination with 4-OHT / SE1 (synergistic effect, A anti-cancer compound alone / A combination): 4 days; for Single drug: absorbance at 450 nm as % of solvent control: OHT 10 or 20 μM, EN 10 μM, ETM 25 nM, FUL 1.0 μM, EXE 0.1 μM, Pab 50 nM, Doc 1.0 nM; for Combi: absorbance at 450 nm as % of solvent control, agent in combination with 4-OHT: agent at the single drug concentration plus 4-OHT; for SE1 (synergistic effect, A anti-cancer compound alone / A combination): agent plus 4-OHT versus agent alone; for growth inhibition by the combination with 4-OHT compared to the individual substances alone: FIG. 2, 7 days
Text: The human breast cancer cell line T-47 D (ACC 739) was obtained from DSMZ as frozen cell pellet (Deutsche Sammlung von Mikroorganismen und Zellkulturen). Originally, these cells T-47D cell line was isolated by Keydar et al. (1979) from a pleural effusion obtained from a patient with an infiltrating ductal carcinoma of the breast T-47D is expressing the ER, PR and AR but lacking HER2/neu overexpression. Thus, T-47D may represent a cell line representative for the most prevalent breast cancer subtype.
T-47D were grown routinely in RPMI medium containing 10% fetal calf serum (FCS) and antibiotics in a humidified incubator at 36.5° C./90% humidity and 5% CO2. Cells were maintained in cell culture bottles for less than 20 passages before the individual experiments were conducted; cell suspensions were cultured 96 well plates and exposed at various concentrations of the individual agents; incubation time varied as indicated in the respective figures. WST-1 assay was used to monitor proliferation at 450 nm wavelength.
Growth was as compared to control using WST-1 assay (monitoring absorption at 450 nm wavelength as indicator for cell viability compared to growth control).
(§1) T-47D cells were grown routinely in RPMI medium containing 10% fetal calf serum (FCS) and antibiotics in a humidified incubator at 36.5° C./90% humidity and 5% CO2. […] WST-1 assay was used to monitor proliferation at 450 nm wavelength.

ZR-75-1 = experiment: WST-1 proliferation assay of ZR-75-1 cells; type: cell-based, human; details: 4 days; for Single drug: absorbance at 450 nm as % of solvent control: OHT 10 or 20 μM, EN 10 μM, ETM 25 nM, FUL 1.0 μM, EXE 0.1 μM, Pab 50 nM, Doc 1.0 nM; for Combi: absorbance at 450 nm as % of solvent control, agent in combination with 4-OHT: agent at the single drug concentration plus 4-OHT; for SE1 (synergistic effect, A anti-cancer compound alone / A combination): agent plus 4-OHT versus agent alone
ZR-75-1N cells = experiment: WST-1 proliferation assay of ZR-75-1N cells; type: cell-based, human; details: FIG. 3B, 4-OHT 20 μM plus Docetaxel 1, 2, 4, 8 nM, 5 days, average of 3 experiments
Description: as §1
Further the human breast cancer cell line ZR-75-1N was cultured as described above and subjected to 4-OHT at a concentration of 20 μM and Docextaxel (Doc) at various concentrations (1, 2, 4, and 8 nM)) as single drugs or in combination for 5 days.

[1] = FIG. 4A, 4-OHT 10 μM, Bicalutamide 5 or 10 μM, Enzalutamide 5 or 10 μM, day 5

Compound	absorbance at 450 nm as % of solvent control, single compound (LNCaP cells)	absorbance at 450 nm as % of solvent control, single compound (VCaP cells)	Single drug: absorbance at 450 nm as % of solvent control (T-47D cells)	Single drug: absorbance at 450 nm as % of solvent control (MDAMB453)	Combi: absorbance at 450 nm as % of solvent control, agent in combination with 4-OHT (MDAMB453)	Combi: absorbance at 450 nm as % of solvent control, agent in combination with 4-OHT (T-47D cells)	Single drug: absorbance at 450 nm as % of solvent control (ZR-75-1)	Combi: absorbance at 450 nm as % of solvent control, agent in combination with 4-OHT (ZR-75-1)	SE1 (synergistic effect, A anti-cancer compound alone / A combination) (MDAMB453)	SE1 (synergistic effect, A anti-cancer compound alone / A combination) (T-47D cells)	SE1 (synergistic effect, A anti-cancer compound alone / A combination) (ZR-75-1)	also measured
C[C@]12CC[C@H]3[C@@H](CCC4=C(O)C(=O)CC[C@@]43C)[C@@H]1CC[C@@H]2O [4-OHT, 4-hydroxytestosterone]	78 % of solvent control	33 % of solvent control	50 % of solvent control	–	–	–	–	–	–	–	–	effect on cell growth as single compound (LNCaP cells; [1]): only a slight effect; effect on cell growth as single compound (LNCaP cells; FIG. 5, 4-OHT 10 μM, Abiraterone 10 μM, day 5): only a slight effect; Single drug: absorbance at 450 nm as % of solvent control (MDAMB453; listed as OHT): 55 % of solvent control and 40 % of solvent control; Single drug: absorbance at 450 nm as % of solvent control (MDAMB453; listed as OHT20): 76 % of solvent control; effect on cell growth as single compound (VCaP cells; FIG. 4B): very sensitive; Single drug: absorbance at 450 nm as % of solvent control (ZR-75-1; listed as OH20): 71 % of solvent control
C[C@]12CC[C@H](O)CC1=CC[C@@H]1[C@@H]2CC[C@]2(C)C(c3cccnc3)=CC[C@@H]12 [Abiraterone]	96 % of solvent control	104 % of solvent control	–	–	–	–	–	–	–	–	–	Combi: absorbance at 450 nm as % of solvent control, agent in combination with 4-OHT (LNCaP cells): 90.57 % of solvent control; Combi: absorbance at 450 nm as % of solvent control, agent in combination with 4-OHT (VCaP cells): 28.11 % of solvent control
CC(=O)O[C@@]12CO[C@@H]1C[C@H](O)[C@@]1(C)C(=O)[C@H](O)C3=C(C)[C@@H](OC(=O)[C@H](O)[C@@H](NC(=O)OC(C)(C)C)c4ccccc4)C[C@@](O)([C@@H](OC(=O)c4ccccc4)[C@H]21)C3(C)C [Docetaxel]	–	–	31 % of solvent control	103 % of solvent control	89 % of solvent control	20 % of solvent control	72 % of solvent control	43 % of solvent control	–	–	–	effect on proliferation of the combination with 4-OHT (ZR-75-1N cells): clear effect of the combination is seen at the lowest dose; effect on proliferation of the combination with 4-OHT compared to the single drugs (T-47D cells; FIG. 3A, Docetaxel 1, 2, 4, 8 nM, 5 days): synergistic effect
CC/C(=C(\c1ccc(O)cc1)c1ccc(OCCNC)cc1)c1ccccc1 [Endoxifen]	–	–	54 % of solvent control	113 % of solvent control	39 % of solvent control	35 % of solvent control	84 % of solvent control	49 % of solvent control	1.2	1.5	1.7	–
CNC(=O)c1ccc(N2C(=S)N(c3ccc(C#N)c(C(F)(F)F)c3)C(=O)C2(C)C)cc1F [Enzalutamide]	84 % of solvent control	32 % of solvent control	62 % of solvent control	66 % of solvent control	57 % of solvent control	28 % of solvent control	71 % of solvent control	55 % of solvent control	1.2	2.2	1.3	Combi: absorbance at 450 nm as % of solvent control, agent in combination with 4-OHT (LNCaP cells): 58 % of solvent control; effect on cell growth of the combination with 4-OHT (LNCaP cells; FIG. 4A, 4-OHT 10 μM plus Bicalutamide 10 μM or Enzalutamide 10 μM, day 5): growth inhibition with a significant synergistic effect; effect on cell growth as single compound (LNCaP cells; [1]): not affected; Combi: absorbance at 450 nm as % of solvent control, agent in combination with 4-OHT (VCaP cells): 30 % of solvent control; effect on cell growth as single compound (VCaP cells; FIG. 4B): very sensitive; effect on cell growth of the combination with 4-OHT (VCaP cells; FIG. 4B): synergistic effect
C=C1C[C@@H]2[C@H](CC[C@]3(C)C(=O)CC[C@@H]23)[C@@]2(C)C=CC(=O)C=C12 [Exemestane]	–	–	70 % of solvent control	118 % of solvent control	33 % of solvent control	47 % of solvent control	81 % of solvent control	57 % of solvent control	–	–	–	growth inhibition by the combination with 4-OHT compared to the individual substances alone (T-47D cells): significant growth inhibition
C[C@]12CC[C@@H]3c4ccc(O)cc4C[C@@H](CCCCCCCCC[S+]([O-])CCCC(F)(F)C(F)(F)F)[C@H]3[C@@H]1CC[C@@H]2O (stereo partly shown) [Fulvestrant]	–	–	38 % of solvent control	80 % of solvent control	27 % of solvent control	22 % of solvent control	90 % of solvent control	43 % of solvent control	–	–	–	growth inhibition by the combination with 4-OHT compared to the individual substances alone (T-47D cells): significant growth inhibition
CC(=O)c1c(C)c2cnc(Nc3ccc(N4CCNCC4)cn3)nc2n(C2CCCC2)c1=O [Palbociclib]	–	–	80 % of solvent control	112 % of solvent control	120 % of solvent control	33 % of solvent control	91 % of solvent control	71 % of solvent control	0.9	2.4	1.3	–
